Target: native FIXa (human) (Homo sapiens, UniProt P00740)
Assay: Determination of the dissociation constant Ki according to DIXON, native FIXa
Format: biochemical
Set-up: 0.14 μmol/l native FIXa (human)
Conditions: pH 8.5, 33% ethylene glycol; for 1/V: 0.07 μmol/l native FIXa
Method: Determination of the Dissociation Constant Ki According to the Method of DIXON
42 mmol/l Tris-HCl, pH 8.5
inhibitor in stepped concentrations (0, 20.4 and 40.8 μmol/l) […]
0.07 μmol/l native FIXa (human)
TIPPS-(3-Am)Phe-iNip-OH was used as the inhibitor and the inhibitory effect was determined as an example for two substrates under optimal conditions (pH 8.5, 33% ethylene glycol).

Chain of native FIXa (human) (P00740 227-461 limits assumed): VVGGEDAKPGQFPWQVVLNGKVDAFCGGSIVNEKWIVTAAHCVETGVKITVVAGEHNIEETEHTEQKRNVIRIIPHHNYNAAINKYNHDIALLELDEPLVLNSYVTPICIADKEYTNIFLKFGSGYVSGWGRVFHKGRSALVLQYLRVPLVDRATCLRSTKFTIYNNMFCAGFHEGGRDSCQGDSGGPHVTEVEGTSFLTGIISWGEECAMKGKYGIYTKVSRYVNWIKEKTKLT
Chain of native FIXa (human) (P00740 47-191 partner limits assumed): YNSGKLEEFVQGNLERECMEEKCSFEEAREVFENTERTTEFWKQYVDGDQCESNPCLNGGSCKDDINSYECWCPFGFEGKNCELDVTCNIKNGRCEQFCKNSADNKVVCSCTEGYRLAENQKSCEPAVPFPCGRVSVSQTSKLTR

For CC(C)c1cc(C(C)C)c(S(=O)(=O)NC(Cc2cccc(C(=N)N)c2)C(=O)N2CCC(C(=O)O)CC2)c(C(C)C)c1 (stereo not shown) [TIPPS-(3-Am)Phe-iNip-OH, Nα-(2,4,6-triisopropylbenzenesulfonyl)-3-amidino-(D,L)-phenylalanine-isonipecotic acid], the 1/V (inhibitor 20.4 μmol/l, MeSO2-D-HHT-Gly-Arg-pNA 0.25 μmol/l) was 129 min/mA, the 1/V (inhibitor 20.4 μmol/l, MeSO2-D-HHT-Gly-Arg-pNA 0.51 μmol/l) was 77.5 min/mA and the 1/V (inhibitor 20.4 μmol/l, MeSO2-D-HHT-Gly-Arg-pNA 1.02 μmol/l) was 29.5 min/mA. It also gave a 1/V (inhibitor 40.8 μmol/l, MeSO2-D-HHT-Gly-Arg-pNA 0.25 μmol/l) of 255 min/mA, a 1/V (inhibitor 40.8 μmol/l, MeSO2-D-HHT-Gly-Arg-pNA 0.51 μmol/l) of 154 min/mA and a 1/V (inhibitor 40.8 μmol/l, MeSO2-D-HHT-Gly-Arg-pNA 1.02 μmol/l) of 53.2 min/mA. It also gave a Ki (native FIXa, substrate MeSO2-D-HHT-Gly-Arg-pNA) of 9 µM.

From patent US6087119A, “Method for determining the catalytic activity of factor IXa” (Roche Diagnostics GmbH, priority 1996, dated 2000)
